According to ChEMBL document CHEMBL5226374, “Peniandranoids A-E: Meroterpenoids with Antiviral and Immunosuppressive Activity from a Penicillium sp” (J Nat Prod, 2023):
Active and inactive are the calls of the source. No cut-off for these calls is given here.

How the values were obtained:
HCT-116 = assay: Cytotoxicity against human HCT-116 cells assessed as inhibition of cell growth by MTT assay; assay type: functional, cell-based
HeLa = assay: Cytotoxicity against human HeLa cells assessed as inhibition of cell growth by MTT assay; assay type: functional, cell-based
HT-29 = assay: Cytotoxicity against human HT-29 cells assessed as inhibition of cell growth by MTT assay; assay type: functional, cell-based
[1] = Selectivity index, ratio of CC50 for cytotoxicity in BALB/c mouse splenocytes to EC50 for immunosuppressive activity in BALB/c mouse splenocytes assessed as reduction in LPS-induced mouse B-lymphocytes proliferation; assay type: toxicity, cell-based; settings: read-out: Ratio CC50/EC50
Influenza A virus = assay: Antiviral activity against Influenza A virus A/PR/8 (H1N1) infected in MDCK cells assessed as inhibition of viral growth incubated for 48 hrs by indirect immunofluorescence assay; assay type: functional, organism-based
[2] = Selectivity index, ratio of CC50 for cytotoxicity in BALB/c mouse splenocytes to EC50 for immunosuppressive activity in BALB/c mouse splenocytes assessed as reduction in ConA-induced mouse T-lymphocytes proliferation; assay type: toxicity, cell-based; settings: read-out: Ratio CC50/EC50
Splenocyte [3] = assay: Immunosuppressive activity in BALB/c mouse splenocytes assessed as reduction in LPS-induced mouse B-lymphocytes proliferation incubated for 48 hrs by MTT assay; assay type: functional, cell-based
Splenocyte [4] = assay: Immunosuppressive activity in BALB/c mouse splenocyte assessed as reduction in ConA-induced mouse T-lymphocytes proliferation incubated for 48 hrs by MTT assay; assay type: functional, cell-based
[5] = Cytotoxicity against BALB/c mouse Splenocyte assessed as reduction in cell viability incubated for 48 hrs by MTT assay; assay type: toxicity, cell-based; settings: splenocytes
[6] = Cytotoxicity against MDCK cells assessed as reduction in cell viability incubated for 48 hrs by CellTiter-Glo assay; assay type: toxicity, cell-based, Canis lupus familiaris; settings: dog
[7] = Selectivity index, ratio of CC50 for cytotoxicity against MDCK cells to EC50 for antiviral activity against Influenza A virus A/PR/8 (H1N1) infected in MDCK cells; assay type: toxicity, cell-based; settings: dog, read-out: Ratio CC50/EC50
MCF7 = assay: Cytotoxicity against human MCF7 cells assessed as inhibition of cell growth by MTT assay; assay type: functional, cell-based
A549 = assay: Cytotoxicity against human A549 cells assessed as inhibition of cell growth by MTT assay; assay type: functional, cell-based
L02 = assay: Cytotoxicity against human L02 cells assessed as inhibition of cell growth by MTT assay; assay type: toxicity, cell-based
[8] = Cytotoxicity against human HEp-2 cells assessed as reduction in cell viability incubated for 6 days by CellTiter-Glo assay; assay type: toxicity, cell-based; settings: time 6 day
dengue virus type 3 = assay: Antiviral activity against Dengue virus 3 infected in african green monkey Vero cells assessed as reduction in viral protein expression incubated for 48 hrs by indirect immunofluorescence assay; assay type: functional, organism-based
[9] = Selectivity index, ratio of CC50 for cytotoxicity against African green monkey Vero cells to EC50 for antiviral activity against Dengue virus 3 infected in african green monkey Vero cells; assay type: toxicity, cell-based; settings: read-out: Ratio CC50/EC50
[10] = Cytotoxicity against African green monkey Vero cells incubated for 48 hrs by DAPI staining based assay; assay type: toxicity, cell-based; settings: chlorocebus sabaeus
[11] = Selectivity index, ratio of CC50 for cytotoxicity against human HEp-2 cells to EC50 for antiviral activity against Respiratory syncytial virus infected in human HEp-2 cells; assay type: toxicity, cell-based; settings: read-out: Ratio CC50/EC50
[12] = test system: Respiratory syncytial virus; assay: Antiviral activity against Respiratory syncytial virus infected in human HEp-2 cells assessed as inhibition of virus-induced cytopathic effect measured after 6 days by CellTiter-Glo assay; assay type: functional, organism-based; settings: HEp-2, 144 h

Compound | Activity (HCT-116) | Activity (HeLa) | Activity (HT-29) | selectivity ratio [1] | EC50 (Influenza A virus) | selectivity ratio [2] | EC50 (Splenocyte [3]) [µM] | EC50 (Splenocyte [4]) [µM] | CC50 at 48 h [5] [µM] | CC50 at 48 h [6] | selectivity ratio [7] | Activity (MCF7) | Activity (A549) | Activity (L02) | CC50 at 144 h [8] | EC50 (dengue virus type 3) | selectivity ratio [9] | CC50 at 48 h [10] | selectivity ratio [11] | EC50 [12] [µM]
COC(=O)[C@@]12C(=O)[C@](C)(C(=O)c3cc(OC)c(O)c(O)c3C(C)=O)C(=O)[C@]1(C)C(C)=C[C@H]1[C@]3(C=O)CC[C@H](OC(C)=O)C(C)(C)[C@H]3CC[C@@]12C | inactive | inactive | inactive | 1.9 | 14 µg/mL | 1.9 | 23 | 23 | 44 | 114 µg/mL | 8.1 | inactive | inactive | Non-Toxic |  |  |  |  |  | 
CC/C=C/C=C/[C@@]1(C)OC(C[C@H](C)[C@]2(C)C(=O)[C@]3(C)C(C)=C[C@H]4[C@]5(C=O)CC[C@H](OC(C)=O)C(C)(C)[C@H]5CC[C@]4(C)[C@]3(C(=O)OC)C2=O)=C(C(=O)OC)C1=O |  |  |  | 2.2 |  | 2.2 | 8.5 | 8.5 | 19 |  |  |  |  |  |  |  |  |  |  | 
COC(=O)[C@@]12C(=O)[C@](C)(Cc3c(O)c(C)cc(C(C)=O)c3O)C(=O)[C@]1(C)C(C)=C[C@H]1[C@]3(C=O)CC[C@H](OC(C)=O)C(C)(C)[C@H]3CC[C@@]12C | inactive | inactive | inactive |  | 19 µg/mL | > 2.6 | > 50 | 19 | > 50 | > 500 µg/mL | > 26 | inactive | inactive | Non-Toxic | 43 µg/mL | > 100 µg/mL | < 1 | 73 µg/mL |  | 
NC(=O)c1ncn([C@@H]2O[C@H](CO)[C@@H](O)[C@H]2O)n1 [RIBAVIRIN] |  |  |  |  | 4.2 µM |  |  |  |  | > 300 µM | > 71 |  |  |  | 95 µM |  |  |  | 18 | 5.4
CC/C=C/C=C/[C@@]1(C)OC(C[C@@H](C)[C@]2(C)C(=O)[C@]3(C)C(C)=C[C@H]4[C@]5(C=O)CC[C@H](OC(C)=O)C(C)(C)[C@H]5CC[C@]4(C)[C@]3(C(=O)OC)C2=O)=C(C(=O)OC)C1=O |  |  |  | 3.5 |  | 1.1 | 7.5 | 23 | 26 |  |  |  |  |  |  |  |  |  |  | 
COc1c(C)c2c(c(O)c1C/C=C(\C)CCC(=O)OCCN1CCOCC1)C(=O)OC2 [MYCOPHENOLATE MOFETIL] |  |  |  |  |  |  | 0.48 |  |  |  |  |  |  |  |  |  |  |  |  | 
C#C[C@@]1(O)[C@H](O)[C@@H](CO)O[C@H]1n1ccc2c(N)ncnc21 |  |  |  |  |  |  |  |  |  |  |  |  |  |  |  | 1.1 µM | 67 | 74 µM |  | 
COC(=O)C1=C(C[C@@H](C)[C@]2(C)C(=O)[C@]3(C)C(C)=C[C@H]4[C@]5(C=O)CC[C@H](OC(C)=O)C(C)(C)[C@H]5CC[C@]4(C)[C@]3(C(=O)OC)C2=O)O[C@](C)(/C=C/C=C/[C@H](C)O)C1=O | inactive | inactive | inactive | > 4.2 |  | > 1.9 | 12 | 27 | > 50 |  |  | inactive | inactive | Non-Toxic |  |  |  |  |  | 
COC(=O)[C@@]12C(=O)[C@](C)(Cc3c(O)c(C)cc(C(C)=O)c3O)C(=O)[C@]1(C)C(C)=C[C@H]1[C@]3(CO)CC[C@H](OC(C)=O)C(C)(C)[C@H]3CC[C@@]12C | inactive | inactive | inactive | > 1 |  |  | 50 | > 50 | > 50 |  |  | inactive | inactive | Non-Toxic |  |  |  |  |  | 
COC(=O)[C@@]12C(=O)[C@](C)(C(=O)c3cc(OC)c(O)c(O)c3C(C)=O)C(=O)[C@]1(C)C(C)=C[C@H]1[C@]3(C)CC[C@H](OC(C)=O)C(C)(C)[C@H]3CC[C@@]12C | inactive | inactive | inactive | 2.4 |  | 1.9 | 8.8 | 11 | 21 |  |  | inactive | inactive | Non-Toxic |  |  |  |  |  | 
